{"source": "patent US20220389067A1", "about": "“Methods of Treating Neurodegenerative Diseases Caused by G4C2 Expansion in C9ORF72” (The Board of Trustees of the Leland Stanford Junior …, priority 2019, published 2022)", "key": {"[1]": {"system": "muscle tissue of C9-500 mice", "experiment": "Muscle mitochondrial morphology and DPR levels in C9-500 mice", "format": "in vivo, mouse", "conditions": "i.p. 40 mg/kg/day", "experimental": "(§1) Non-canonical Notch regulation of poly(GR) was then tested in mammalian cells. In HEK293T cells, overexpression of Notch (FIG. 91), or treatment of cells with the ATK activator SC79 (FIGS. 91 & 92) reduced Flag-GR80 level, whereas small molecule inhibitor of AKT (AKTi) or VCP (VCPi) increased Flag-GR80 level (FIG. 93). Similar to fly tissue, the Notch overexpression effect was blocked by VCPi (FIG. 91). […] On the other hand, AKTi or VCPi increased poly(GR) level (FIGS. 78 & 94). To further test the in vivo relevance, the C9ALS/FTD BAC transgenic mice (C9-500) were examined, which express a human C9orf72 gene with ˜500 G4C2 repeats. Treatment of C9-500 mice by i.p. injection of SC79 (40 mg/kg/day) improved motor behavior as detected with the rotarod assay (FIG. 95). This was correlated with rescue of muscle mitochondrial morphology (FIGS. 95 & 96) and reduction of poly(GR) (FIGS. 97 & 98) but not poly(GA) (FIGS. 98 & 99) levels in muscle tissue. […]\nFemale C9-500 BAC transgenic mice were i.p. injected with sc79 (Selleckchem) at 40 mg/kg/day (n=10) or vehicle (DMSO [Sigma]: PEG300 [Spectrum]: 2-Hydroxypropyl-beta-cyclodextran (20%) [Sigma] at 1:3:1) (n=8) from 16 weeks of age and continued for 3 months. […] Once all the mice were “ready”, the start button was pushed and the test began. […] The fall-off times of each animal were recorded and used for statistical analysis. […]"}, "[2]": {"system": "Flag-GR80 in HEK293T cells", "experiment": "Flag-GR80 level in HEK293T cells (non-canonical Notch/AKT/VCP modulation)", "format": "cell-based", "conditions": "FIGS. 91-93"}, "patient fibroblasts": {"system": "patient fibroblasts", "experiment": "poly(GR) level and mitochondrial morphology in patient fibroblasts (AKT/VCP modulation)", "format": "cell-based, human"}, "[3]": {"system": "C9ALS/FTD BAC transgenic mice (C9-500)", "experiment": "Rotarod assay in C9-500 BAC transgenic mice", "format": "in vivo, mouse", "conditions": "C9-500 mice, i.p. 40 mg/kg/day, FIG. 95", "experimental": "as §1\nFemale C9-500 BAC transgenic mice were i.p. injected with sc79 (Selleckchem) at 40 mg/kg/day (n=10) or vehicle (DMSO [Sigma]: PEG300 [Spectrum]: 2-Hydroxypropyl-beta-cyclodextran (20%) [Sigma] at 1:3:1) (n=8) from 16 weeks of age and continued for 3 months. […] Once all the mice were “ready”, the start button was pushed and the test began. […] The fall-off times of each animal were recorded and used for statistical analysis."}, "GR80": {"system": "GR80", "experiment": "Effect of CAT-tailing inhibition on poly(GR) level", "format": "cell-based", "conditions": "FIG. 82", "excerpt": "Ribosome-stalled NPC is modified by a non-templated, 40S-independent CAT-tailing process that depends on Tae2/Clbn/NEMF family proteins. CAT-tailed substrates escaping the quality control system can accumulate and form aggregates. […] Consistently, RNAi of a fly homolog of Vms1, a stress-responsive mitochondrial RQC factor that antagonizes CAT-tailing by cleaving peptidyl-tRNA bond, increased high MW GR80 signal and total GR80 abundance (FIG. 77), whereas overexpression of mammalian Vms1 (ANKZF1) had opposite effect (FIG. 78). In C9ALS fibroblasts, ANKZF1 RNAi increased, whereas NEMF RNAi decreased poly(GR) (FIG. 78). Thus steady-state poly(GR) level is positively correlated with a CAT-tailing-like process.\nThe role of Ala- or Thr-tRNA synthetase (AARS or TARS) was examined. […] The specificity of the ARS effect was shown by the lack of effect of the other ARSs tested (FIG. 79). Thus AARS/TARS, and possibly select other ARSs (e.g., IARS), appear to be involved in GR80 CAT-tailing, and that CAT-tailing confers stabilization, aggregation, and toxicity. Further supporting this notion, poly(GR) containing an artificial CAT-tail (GR71-AT15) formed prominent aggregates on mitochondria on its own, and its level was not affected by NEMF RNAi or anisomycin treatment (FIG. 82)."}, "GR80 fly muscle": {"system": "GR80 fly muscle", "experiment": "Nigericin treatment of GR80 transgenic flies", "format": "in vivo, Drosophila", "excerpt": "To further test whether high MMP and altered ion homeostasis contribute to GR80 toxicity, GR80 flies we treated with nigericin, a K^+/H^+ antiporter that can re-balance mitochondrial matrix ion levels. […] Moreover, the aberrant interactions between MICOS subunits caused by GR80 (FIG. 42) and the elevated mito-K^+ in GR80 flies were rescued after nigericin treatment (FIGS. 41 & 42). Thus, by restoring mitochondrial ion homeostasis, nigericin may affect the MICOS structure and, in turn, GR80 stability, similar to the effects of the genetic manipulation of MICOS, although other mechanisms of nigericin action cannot be excluded.\nNewly hatched flies were collected and placed into vials with instant fly food (Carolina Biological Supply Company, USA) mixed with different doses ([…]) of Nigericin (Cayman Chemical, 11437) from the stock solution (50 mM dissolved in DMSO). The flies were fed for 7 days and changed with fresh vial every 24 hours. After treatments, fly thoracic samples were harvested and used for sample preparation."}, "[4]": {"system": "fibroblasts from C9-ALS/FTD patients carrying C9ORF72 G4C2 repeat expansion", "experiment": "Nigericin treatment of C9-ALS/FTD patient fibroblasts", "format": "cell-based, human", "experimental": "(§2) Finally, it was tested whether the pathogenic mechanisms uncovered in flies are relevant to GR toxicity in patient cells. In fibroblasts from C9-ALS/FTD patients carrying C9ORF72 G4C2 repeat expansion, GR was present in the mitochondrial fraction, as shown by dot blot (FIG. 46) and immunostaining (FIG. 46), although nuclear GR was also detected (FIG. 46). […] Thus, altered mitochondrial inner membrane structure and ion homeostasis are conserved features of C9-ALS. There were also GR interactions with Mic27/Apool in patient fibroblasts (FIG. 49). Nigericin treatment (FIGS. 50 & 51) or knockdown of key MICOS components (FIGS. 49 & 52) rescued the mitochondrial defects in patient fibroblasts. […] Nigericin treatment (FIG. 54) or knockdown of key MICOS components (FIG. 53) reduced the GR level in patient cells, but nigericin had no effect on the GA level (FIG. 53)."}, "[5]": {"system": "HEK293 cells transfected with GR80", "experiment": "mito-K+ in HEK293 cells transfected with GR80", "format": "cell-based", "conditions": "HEK293 cells transfected with GR80, FIG. 53", "experimental": "as §2"}}, "data": [{"smiles": "CCOC(=O)C1=C(N)Oc2ccc(Cl)cc2C1C(C#N)C(=O)OCC", "note": "(centres unmarked) [SC79]", "values": [{"measurement": "muscle mitochondrial morphology", "setting": "[1]; FIGS. 95 & 96", "result": "rescue"}, {"measurement": "poly(GR) level in muscle tissue", "setting": "[1]; FIGS. 97 & 98", "result": "reduction"}, {"measurement": "Flag-GR80 level", "setting": "[2]", "result": "reduced"}, {"measurement": "mitochondrial morphology", "setting": "patient fibroblasts; FIG. 93", "result": "rescued"}, {"measurement": "poly(GR) level", "setting": "patient fibroblasts; FIGS. 78 & 94", "result": "significantly reduced"}, {"measurement": "motor behavior as detected with the rotarod assay", "setting": "[3]", "result": "improved"}]}, {"smiles": "COc1ccc(C[C@H]2NC[C@H](O)[C@H]2OC(C)=O)cc1", "note": "[Anisomycin, anisomycin]", "values": [{"measurement": "level of poly(GR) containing an artificial CAT-tail (GR71-AT15)", "setting": "GR80", "result": "not affected"}]}, {"smiles": "CO[C@@H]1C[C@@H](C[C@H]2CC[C@H](C)[C@H]([C@@H](C)C(=O)O)O2)O[C@]2(O[C@](C)([C@H]3CC[C@@](C)([C@@H]4O[C@@H]([C@H]5O[C@@](O)(CO)[C@H](C)C[C@@H]5C)C[C@@H]4C)O3)C[C@H]2C)[C@@H]1C", "note": "[nigericin]", "values": [{"measurement": "GR80 level in fly muscle", "setting": "GR80 fly muscle; GR80 flies, FIG. 44", "result": "significantly reduced"}, {"measurement": "mitochondrial morphology", "setting": "GR80 fly muscle; GR80 flies, low concentrations of nigericin in food, FIG. 43", "result": "effectively restored"}, {"measurement": "GR80 fly wing-posture defect", "setting": "GR80 fly muscle; GR80 flies, nigericin in food, FIG. 44", "result": "rescue"}, {"measurement": "aberrant interactions between MICOS subunits caused by GR80", "setting": "GR80 fly muscle; after nigericin treatment, FIG. 42", "result": "rescued"}, {"measurement": "elevated mito-K+ in GR80 flies", "setting": "GR80 fly muscle; after nigericin treatment, FIGS. 41 & 42", "result": "rescued"}, {"measurement": "GA80 level", "setting": "GR80 fly muscle; flies, specificity control, FIG. 42", "result": "did not affect"}, {"measurement": "GR level in patient cells", "setting": "[4]; C9-ALS/FTD patient fibroblasts, FIG. 54", "result": "reduced"}, {"measurement": "mitochondrial defects in patient fibroblasts", "setting": "[4]; C9-ALS/FTD patient fibroblasts, FIGS. 50 & 51", "result": "rescued"}, {"measurement": "GA level", "setting": "[4]; patient cells, FIG. 53", "result": "no effect"}, {"measurement": "GR-induced mito-K+ increase", "setting": "[5]", "result": "reduced"}]}]}
